Experimental data published in patent US11292971B2, “Dissolution of hexamine in non-aqueous solvent” (ECOLAB USA INC., priority 2017, dated 2022).

Tests used:
[1] = 20° C., cited from earlier work
[2] = Dissolution of hexamine in cinnamyl alcohol and glycerin: slurry left two days, clear supernatant analyzed for composition; type: physicochemical; settings: about room temperature
Description: Slurries were prepared by mixing hexamine in cinnamyl alcohol or a mixture of cinnamyl alcohol and glycerin at about room temperature. The compositions were then allowed to sit undisturbed for two days and the clear supernatant decanted off and analyzed for composition. As the results below illustrate, clear stable solutions of hexamine in various ratios of glycerin and cinnamyl alcohol were obtained.

Hexamine in stable solution ([2]; cinnamyl alcohol 16, glycerin (<1% water) 76 weight %): 8 Weight %
Hexamine in stable solution ([2]; cinnamyl alcohol 32, glycerin (<1% water) 63 weight %): 5 Weight %
Hexamine in stable solution ([2]; cinnamyl alcohol 37, glycerin (<1% water) 55 weight %): 8 Weight %
Hexamine in stable solution ([2]; cinnamyl alcohol 50, glycerin (<1% water) 43 weight %): 7 Weight %
Hexamine in stable solution ([2]; cinnamyl alcohol 59, glycerin (<1% water) 34 weight %): 7 Weight %
Hexamine in stable solution ([2]; cinnamyl alcohol 68, glycerin (<1% water) 22 weight %): 10 Weight %
Hexamine in stable solution ([2]; cinnamyl alcohol 78, glycerin (<1% water) 11 weight %): 11 Weight %
Hexamine in stable solution ([2]; cinnamyl alcohol 84, glycerin (<1% water) 6 weight %): 10 Weight %
Hexamine in stable solution ([2]; cinnamyl alcohol 93, glycerin (<1% water) 0 weight %): 7 Weight %
Compound: C1N2CN3CN1CN(C2)C3 [Hexamine, 1,3,5,7-tetraazatricyclo[3.3.1.1^3,7]decane]
solubility in acetone ([1]; acetone): 0.65 g
solubility in benzene ([1]; benzene): 0.23 g
solubility in chloroform ([1]; chloroform): 13.4 g
solubility in ethanol ([1]; ethanol): 2.89 g
solubility in ether ([1]; ether): 0.06 g
solubility in methanol ([1]; methanol): 7.25 g
solubility in petroleum ether ([1]; petroleum ether): near zero
solubility in xylene ([1]; xylene): 0.14 g
